Assay results as given in patent publication US6034134A, “1-Amino-alkylcyclohexane NMDA receptor antagonists” (Merz + Co. GmbH & Co., priority 1998, dated 2000).
Where a name gives a salt, the structure may show the parent alone. Read-outs that look alike come from different tables or passages of the source.

Experiments:
NMDA receptor = test: Patch clamp: NMDA-induced inward currents in cultured hippocampal neurones; assay type: cell-based, rat
Description: Hippocampi were obtained from rat embryos (E20 to E21) and were then transferred to calcium and magnesium free Hank's buffered salt solution (Gibco) on ice. Cells were mechanically dissociated in 0.05% DNAase/0.3% ovomucoid (Sigma) following an 8 minute pre-incubation with 0.66% trypsin/0.1% DNAase (Sigma). The dissociated cells were then centrifuged at 18 ×g for 10 minutes, re-suspended in minimum essential medium (Gibco) and plated at a density of 150,000 cells cm^-2 onto poly-L-lysine (Sigma)-precoated plastic petri dishes (Falcon). The cells were nourished with NaHCO3 /HEPES-buffered minimum essential medium supplemented with 5% fetal calf serum and 5% horse serum (Gibco) and incubated at 37° C. with 5% CO2 at 95% humidity. […] Thereafter the medium was exchanged partially twice weekly.
Patch clamp recordings were made from these neurones with polished glass electrodes (4-6 m.OMEGA.) in the whole cell mode at room temperature (20-22° C.) with the aid of an EPC-7 amplifier (List). Test substances were applied by switching channels of a custom-made fast superfusion system with a common outflow (10-20 ms exchange times). The contents of the intracellular solution were as follows (mM): CsCl (120), TEACl (20), EGTA (10), MgCl2 (1), CaCl2 -(0.2), glucose (10), ATP(2), cAMP (0.25); pH was adjusted to 7.3 with CsOH or HC1. The extracellular solutions had the following basic composition (mM): NaCl (140), KCl (3), CaCl2 (0.2), glucose (10), HEPES (10), sucrose (4.5), tetrodotoxin (TTX 3*10^-4). Glycine (1 μM) was present in all solutions: a concentration sufficient to cause around 80-85% activation of glycineB receptors. Only results from stable cells were accepted for inclusion in the final analysis, i.e., following recovery of responses to NMDA by at least 75% of their depression by the antagonists tested.
(§1) IC50 s in patch clamp, excitotoxicity, and binding studies were calculated according to the four parameter logistic equation using the Grafit computer program (Erithacus Software, England). Ki value for binding studies were then determined according to Cheng and Prusoff. Binding values presented are means±SEM of 3-5 determinations (each performed in duplicate). […] Pearson product moment correlation analysis (Sigma Stat, Jandel Scientific) was used to compare in vitro potencies and in vivo anticonvulsant activity.

[1] = Traction reflex test (myorelaxant action) in mice, therapeutic index versus MES; assay type: in vivo; conditions: ED50 for traction reflex impairment divided by ED50 for MES; for selectivity ratio at 0.5 h: mouse, in vivo, ip, read-out: TI Tract
Description: NMR female mice (18-28 g) housed 5 per cage were used for the maximal electroshock (MES) and motor impairment tests. […] All compounds were dissolved in 0.9% saline.
The MES test was performed together with tests for myorelaxant action (traction reflex) and motor coordination (rotarod). For the traction reflex test mice were placed with their forepaws on a horizontal rod and were required to place all 4 paws on the wire within 10 seconds. To test ataxia (motor coordination) mice were placed on rotarod (5 rpm) and were required to remain on the rod for 1 minute. […] These tests were followed by MES (100 Hz, 0.5 second shock duration, 50 mA shock intensity, 0.9 ms impulse duration, Ugo Basile) applied through corneal electrodes. The presence of tonic convulsions was scored (tonic extension of hind paws with minimum angle to the body of 90°). The aim was to obtain ED50 s for all parameters scored (anticonvulsive activity and motor side effects) with use of the Litchfield Wilcoxon test for quantal dose responses. Division of the ED50 for side effects (ataxia or myorelaxation) by the ED50 for antagonism of electroshock convulsions was used as a therapeutic index (TI). […]

[2] = human, in vivo; cited from earlier work
[3] = Rotarod test (motor coordination, ataxia) in mice, therapeutic index versus MES; assay type: in vivo; conditions: mouse, in vivo, ip; ED50 for rotarod failure divided by ED50 for MES; read-out: TI Rot.
Description: All compounds were dissolved in 0.9% saline.
The MES test was performed together with tests for myorelaxant action (traction reflex) and motor coordination (rotarod). For the traction reflex test mice were placed with their forepaws on a horizontal rod and were required to place all 4 paws on the wire within 10 seconds. To test ataxia (motor coordination) mice were placed on rotarod (5 rpm) and were required to remain on the rod for 1 minute. […] These tests were followed by MES (100 Hz, 0.5 second shock duration, 50 mA shock intensity, 0.9 ms impulse duration, Ugo Basile) applied through corneal electrodes. The presence of tonic convulsions was scored (tonic extension of hind paws with minimum angle to the body of 90°). The aim was to obtain ED50 s for all parameters scored (anticonvulsive activity and motor side effects) with use of the Litchfield Wilcoxon test for quantal dose responses. Division of the ED50 for side effects (ataxia or myorelaxation) by the ED50 for antagonism of electroshock convulsions was used as a therapeutic index (TI).
as §1, with “Prusoff.” for “Prusoff. Binding values presented are means±SEM of 3-5 determinations (each performed in duplicate).”

[4] = Solubility (analytical certificates); assay type: physicochemical
NMDA-induced convulsions = assay type: in vivo, mice; conditions: Mus musculus, ip; read-out: ED50 in the NMDA test
PTZ-induced convulsions = assay type: in vivo, mice; conditions: Mus musculus, ip; read-out: ED50 in the PTZ test
[5] = Table 9; NMDA-induced currents; read-out: Patch Clamp IC50

SMILES | IC50 (NMDA receptor; read-out: Patch Clamp IC50; Table 7; NMDA 200 μM with glycine 1 μM at -70 mV) [µM] | IC50 (NMDA receptor; read-out: Patch Clamp IC50; Table 9; NMDA-induced currents) [µM] | selectivity ratio at 0.5 h [1] | side effects in humans [2] | selectivity ratio at 0.5 h [3] | Solubility [4] | IC50 (NMDA receptor; [5]) [µM] | ED50 (NMDA-induced convulsions) [mg/kg] | ED50 (PTZ-induced convulsions) [mg/kg] | IC50 (NMDA receptor; Table 7; NMDA 200 μM with glycine 1 μM at -70 mV; read-out: Patch Clamp IC50) [µM] | TI Tract ([1]; 30 min)
CC12CC3CC(C)(C1)CC(N)(C3)C2 [Memantine, reference compound] | 2.3 | 2.87 | 2.9 | rarely produce side effects at the therapeutic doses | 2.5 |  |  |  |  |  | 
CC[C@H]1CC(C)(C)C[C@@](C)(N)C1 [MRZ 2/683, (1S, 5S) cis-3-Ethyl-1,5,5-trimethylcyclohexylamine hydrochloride hydrate] |  |  | 2.7 |  | 3.5 | soluble in chloroform, poor soluble in water | 4.3 |  |  |  | 
CC1(C)CC(C)(C)CC(C)(N)C1 [Mrz 2/579, 1-amino-1,3,3,5,5-pentamethylcyclohexane] |  |  |  |  |  |  | 1.29 | 3.7 | 5.5 | 1.3 | 2.9
C[C@@H]1C[C@H](C)C[C@](C)(N)C1 [MRZ 2/681, 1,cis-3,cis-5-Trimethylcyclohexylamine hydrochloride hydrate] |  |  | 2.1 |  | 5.8 | soluble in water, chloroform | 30 |  |  |  | 
